Key:
[1] = system: Colletotrichum lindemuthianum; experiment: B-8. Colletotrichum lindemuthianum in vitro cell test; assay type: cell-based; conditions: 144 h, 20 ppm of active ingredient, 6 days incubation, liquid culture, absorbance, read-out: efficacy (inhibition of fungal growth)
Method in brief: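 Liquid-culture germination/growth test: compounds in ≤1% final DMSO were added to spore-containing medium. Fungal growth was quantified spectrophotometrically after 6 days of incubation and expressed as inhibition versus untreated controls.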

Alternaria alternata = Alternaria alternata in vitro cell test; assay type: cell-based; conditions: 120 h, 20 ppm of active ingredient, liquid culture, 5 days incubation, spectrometric measurement of mycelium growth, read-out: efficacy (inhibition of fungal growth)
Method in brief: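 Spectrometric readout of mycelial growth after 5-day incubation gauged compound effects on spore germination and growth of A. alternata in liquid medium. Compounds were delivered in DMSO at ≤1% final. Absorbance was compared with untreated controls to give inhibition.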

Septoria tritici = experiment: B-9. Septoria tritici in vitro cell test; assay type: cell-based; conditions: Zymoseptoria tritici, 168 h; 20 ppm of active ingredient; 7 days incubation; liquid culture, absorbance; read-out: efficacy (inhibition of fungal growth)
Procedure: B-9. Septoria tritici In Vitro Cell Test [table] Fungicides were solubilized in DMSO and the solution used to prepare the required range of concentrations. The final concentration of DMSO used in the assay was ≤1%. A spore suspension of S. tritici was prepared and diluted to the desired spore density. Fungicides were evaluated for their ability to inhibit spore germination and mycelium growth in liquid culture assay. The compounds were added in the desired concentration to the culture medium with spores. After 7 days incubation, fungi-toxicity of compounds was determined by spectrometric measurement of mycelium growth. Inhibition of fungal growth was determined by comparing the absorbance values in wells containing the fungicides with the absorbance in control wells without fungicides.

[2] = system: Colletotrichum lindemuthianum; experiment: In vivo preventive test on Colletotrichum lindemuthianum (leaf spot on bean); conditions: 168 h, 500 ppm of active ingredient, preventive spray on bean, evaluated 7 days after inoculation, read-out: efficacy
Method in brief: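 Young bean plants sprayed with compound in DMSO/acetone/Tween 80 diluted in water; solvent-only controls. Inoculated 24 h later with C. lindemuthianum spore suspension, then kept 24 h at 20 °C/100% RH and 6 days at 20 °C/90% RH.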

Alternaria brassicae = experiment: In vivo preventive test on Alternaria brassicae (leaf spot on radish or cabbage); conditions: 500 ppm of active ingredient, preventive spray on radish or cabbage, evaluated 3 to 4 days after inoculation, read-out: efficacy
Method in brief: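 Protective spray on young radish or cabbage: actives in water diluted from DMSO/acetone/Tween 80, with solvent-only controls. Leaves were challenged after 24 h with a spore suspension, and plants were held at 100% RH, 20 °C for 3 to 4 days.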

Pyrenophora teres [3] = experiment: B-10. Pyrenophora teres in vitro cell test; assay type: cell-based; conditions: 144 h, 20 ppm of active ingredient, 6 days incubation, liquid culture, absorbance, read-out: efficacy (inhibition of fungal growth)
Method in brief: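 Liquid-culture assay on a P. teres spore suspension with compounds added to the medium from DMSO solutions, final DMSO ≤1%. Mycelium growth read spectrometrically after 6 days. Inhibition calculated from absorbance against untreated control wells.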

Sphaerotheca fuliginea = experiment: In vivo preventive test on Sphaerotheca fuliginea (powdery mildew on cucurbits); conditions: Podosphaera fuliginea, 192 h; 500 ppm of active ingredient; preventive spray on gherkin; evaluated 8 days after inoculation; read-out: efficacy
Method in brief: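 This is a preventive spray test on gherkin seedlings, with compound formulated in DMSO/acetone/Tween 80 in water and solvent-only controls. Spore inoculation followed one day after treatment. Incubation lasted 8 days at 20 °C, 70–80% RH.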

Pyrenophora teres [4] = experiment: In vivo preventive test on Pyrenophora teres (net blotch on barley); conditions: 240 h, 500 ppm of active ingredient, preventive spray on barley, evaluated 10 days after inoculation, read-out: efficacy
Method in brief: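 Net blotch spores were sprayed onto barley leaves one day after foliar treatment with water-diluted DMSO/acetone/Tween 80 formulations (solvent-only controls). Plants were kept at 20° C: first 48 hours at 100% relative humidity, then 8 days at 70-80%.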

Botrytis cinerea [5] = experiment: B-11. Botrytis cinerea in vitro cell test; assay type: cell-based; conditions: 144 h, 20 ppm of active ingredient, 6 days incubation, liquid culture, absorbance, read-out: efficacy (inhibition of fungal growth)
Method in brief: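 B. cinerea spores were grown in liquid culture with compound (DMSO ≤1% final). Mycelium growth was measured spectrometrically after 6 days, with inhibition taken as absorbance relative to untreated control wells.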

[6] = Measurement of Log P values by HPLC on reversed phase columns (EEC directive 79/831 Annex V.A8); assay type: physicochemical; conditions: reversed phase HPLC column, method [a]: LC-UV, acidic range, 0.1% formic acid in water and acetonitrile as eluent
Method in brief: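 Log P derived from retention on reversed-phase columns (EEC directive 79/831 Annex V.A8), LC-UV, acetonitrile gradient 10% to 95% against water containing 0.1% formic acid, 0.001 M ammonium acetate, or 0.1% phosphoric acid; several values per method separated by "+".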

Botrytis cinerea [7] = experiment: In vivo preventive test on Botrytis cinerea (grey mould); conditions: 500 ppm of active ingredient, preventive spray on gherkin or cabbage, evaluated 4 to 5 days after inoculation, read-out: efficacy
Method in brief: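 Preventive spray on cabbage or gherkin seedlings, with compound formulated in DMSO/acetone/Tween 80 and water-diluted, preceded spore inoculation by 24 hours. Cabbage was held 4 to 5 days at 20° C., 100% relative humidity; gherkin 4 to 5 days at 17° C., 90% relative humidity.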

Row | Structure (SMILES) | chromatographic logP [6] | inhibition at 20 ppm [1] | inhibition at 20 ppm (Alternaria alternata) | inhibition at 20 ppm (Septoria tritici) | pest or weed control at 500 ppm [2] | pest or weed control at 500 ppm (Alternaria brassicae) | inhibition at 20 ppm (Pyrenophora teres [3]) | pest or weed control at 500 ppm (Sphaerotheca fuliginea) | pest or weed control at 500 ppm (Pyrenophora teres [4]) | inhibition at 20 ppm (Botrytis cinerea [5]) | pest or weed control at 500 ppm (Botrytis cinerea [7])
1 | Cc1cc(Br)ccc1C(F)(F)CNC(=O)c1c(Oc2cccc(C3CC3)c2F)nnc2c1CCCC2 [I-153] | – | 90 to 100% | 90 to 100% | 90 to 100% | 90 to 100% | 90 to 100% | 90 to 100% | 90 to 100% | 90 to 100% | 90 to 100% | –
2 | O=C(NCC(F)c1ccc(Cl)cc1Cl)c1c(Oc2cccc(C3CC3)c2F)nnc2c1CCCC2 (stereo not drawn) [I-184] | 4.17 | 90 to 100% | 90 to 100% | 90 to 100% | 90 to 100% | 90 to 100% | 90 to 100% | 90 to 100% | 90 to 100% | 90 to 100% | –
3 | Cc1cc(Br)ccc1C(F)(F)CNC(=O)c1c(Oc2cccc(C(F)(F)F)c2)nnc2c1CCCC2 [I-202] | 4.28 | 90 to 100% | 90 to 100% | 90 to 100% | 90 to 100% | – | 90 to 100% | 90 to 100% | 90 to 100% | 90 to 100% | 90 to 100%
4 | Cc1cc(Br)ccc1C(F)(F)CNC(=O)c1c(Oc2cccc(Cl)c2F)nnc2c1CCC2 [I-154] | 4.11 | 90 to 100% | 90 to 100% | 90 to 100% | 90 to 100% | 90 to 100% | 90 to 100% | 90 to 100% | 90 to 100% | 90 to 100% | –
5 | Cc1ccc(CCNC(=O)c2c(Oc3cccc(C(F)(F)F)c3)cnc3c2CCC3)c(C)c1 [I-157] | 4.23 | 90 to 100% | 90 to 100% | 90 to 100% | 90 to 100% | 90 to 100% | 90 to 100% | 90 to 100% | 90 to 100% | 90 to 100% | –
6 | Cc1cc(Cl)ccc1C(F)(F)CNC(=O)c1c(Oc2cccc(C(F)(F)F)c2)nnc2c1CCC2 [I-164] | 4.11 | 90 to 100% | 90 to 100% | 90 to 100% | 90 to 100% | 90 to 100% | 90 to 100% | 90 to 100% | 90 to 100% | 90 to 100% | –
7 | O=C(NCC(F)(F)c1ccc(Br)cc1Cl)c1c(Oc2cccc(C3CC3)c2F)nnc2c1CCCC2 [I-211] | 4.69 | 90 to 100% | 90 to 100% | 90 to 100% | 90 to 100% | – | 90 to 100% | 90 to 100% | 90 to 100% | 90 to 100% | 90 to 100%

Now from value to compound, other results behind:

Row | chromatographic logP [6] | Structure (SMILES) | inhibition at 20 ppm [1] | inhibition at 20 ppm (Alternaria alternata) | inhibition at 20 ppm (Septoria tritici) | pest or weed control at 500 ppm [2] | pest or weed control at 500 ppm (Alternaria brassicae) | inhibition at 20 ppm (Pyrenophora teres [3]) | pest or weed control at 500 ppm (Sphaerotheca fuliginea) | pest or weed control at 500 ppm (Pyrenophora teres [4]) | inhibition at 20 ppm (Botrytis cinerea [5]) | pest or weed control at 500 ppm (Botrytis cinerea [7])
8 | 4.11 | O=C(NCC(F)(F)c1ccc(Br)cc1Cl)c1c(Oc2cccc(Cl)c2)nnc2c1CCCC2 [I-209] | 90 to 100% | 90 to 100% | 80 to 89% | 90 to 100% | – | 90 to 100% | 90 to 100% | 90 to 100% | 90 to 100% | 90 to 100%
9 | 4.23 | O=C(NCC(F)(F)c1ccc(Cl)cc1Cl)c1c(Oc2cccc(C(F)(F)F)c2)nnc2c1CCCC2 [I-189] | 90 to 100% | 90 to 100% | 90 to 100% | 90 to 100% | – | 90 to 100% | 90 to 100% | 80 to 89% | 90 to 100% | 90 to 100%
10 | 3.84 | O=C(NCC(F)(F)c1ccc(Br)cc1Cl)c1c(Oc2cccc(C(F)F)c2)nnc2c1CCCC2 [I-208] | 90 to 100% | 90 to 100% | 90 to 100% | 90 to 100% | – | 90 to 100% | 90 to 100% | 90 to 100% | 90 to 100% | 90 to 100%
11 | 3.73 | O=C(NCC(F)(F)c1ccc(Cl)cc1Cl)c1c(Oc2cccc(C(F)F)c2)nnc2c1CCCC2 [I-191] | 90 to 100% | 90 to 100% | 90 to 100% | 90 to 100% | – | 90 to 100% | 90 to 100% | 90 to 100% | 90 to 100% | 90 to 100%
12 | 4 | O=C(NCC(F)(F)c1ccc(Cl)cc1Cl)c1c(Oc2cccc(Cl)c2)nnc2c1CCCC2 [I-192] | 90 to 100% | 90 to 100% | 90 to 100% | 90 to 100% | – | 90 to 100% | 90 to 100% | 90 to 100% | 90 to 100% | 90 to 100%
13 | 4.05 | O=C(NCC(F)(F)c1ccc(Cl)cc1Cl)c1c(Oc2cccc(C(F)(F)F)c2)nnc2c1CCC2 [I-198] | 90 to 100% | 90 to 100% | 90 to 100% | 90 to 100% | – | 90 to 100% | 90 to 100% | 80 to 89% | 90 to 100% | 90 to 100%
14 | 4.05 | O=C(NCC(F)(F)c1ccc(Cl)cc1Cl)c1c(Oc2cccc(Cl)c2F)nnc2c1CCCC2 [I-194] | 90 to 100% | 90 to 100% | 90 to 100% | 90 to 100% | – | 90 to 100% | 90 to 100% | 90 to 100% | 90 to 100% | 90 to 100%
15 | 3.94 | O=C(NCC(F)(F)c1ccc(Cl)cc1Cl)c1c(Oc2cccc(Cl)c2F)nnc2c1CCC2 [I-201] | 90 to 100% | 90 to 100% | 90 to 100% | 90 to 100% | – | 90 to 100% | 90 to 100% | 90 to 100% | 90 to 100% | 90 to 100%
16 | 4.4 | O=C(NCC(F)(F)c1ccc(Br)cc1Cl)c1c(Oc2cccc(Cl)c2F)nnc2c1CCCC2 [I-210] | 90 to 100% | 90 to 100% | 90 to 100% | 90 to 100% | – | 90 to 100% | 90 to 100% | 90 to 100% | 90 to 100% | 90 to 100%
